Data published in US4385055A, “2-Acetyl-and 2-propionylpyridine thiosemicarbazones as antimalarials” (The United States of America as represented by the …, priority 1981, dated 1983).
In brackets after ≈: the same amount, converted by molar mass. Like-named read-outs stand apart in the source and are kept apart here. Values belong to the compound of their own block, whether it stands above or below them.

Columns and labels:
Assay type in all cases: cell-based
Staphylococcus aureus = assay: Macro broth dilution MIC, Staphylococcus aureus isolates (Test 1); settings: 24 h, read after 24 hours, read-out: Minimum Inhibitory Concentration
Protocol: (§1) Compounds were tested against five isolates of Staphylococcus aureus and five isolates of Group D Enterococcus. The bacteria used were isolated from patients at the Walter Reed Army Medical Center, Washington, D.C. The test procedure used was the macro broth dilution method in duplicate as outlined by J. C. Sherris on pages 414-415 in "Manual of Clinical Microbiology," 2nd ed., E. Lennette, E. H. Spaulding, and J. P. Truant, Ed. (American Society for Microbiology, Washington, D.C., 1974). Each compound was dissolved in DMSO (12.8 mg/mL) and then diluted with Mueller-Hinton broth to obtain the desired dilutions. Tubes containing the highest quantities of DMSO with no compound present were run as controls.

Group D Enterococcus = assay: Macro broth dilution MIC, Group D Enterococcus isolates (Test 1); settings: 24 h, read after 24 hours, read-out: Minimum Inhibitory Concentration
Protocol: as §1

Neisseria meningitidis = assay: Macro broth dilution MIC, Neisseria meningitidis isolates (Test 2); settings: for MIC: Neisseria meningitidis, 24 h, read-out: Minimum Inhibitory Concentration
Protocol: Compounds were tested against five isolates of Neisseria meningitidis. The bacterial isolates were provided by the Department of Bacterial Diseases of the Walter Reed Army Institute of Research. The test procedure used was the macro broth dilution method in duplicate outlined by J. C. Sherris on pages 414-415 (loc. cit.). The test compounds and controls were prepared as in Test 1 above. Ampicillin and penicillin standards were initially diluted as described by J. C. Sherris on pages 411-412 (loc. cit.) followed by dilution with Mueller-Hinton broth. The tubes were incubated at 37° C. under 5-10% carbon dioxide.

Mycobacterium smegmatis = assay: MIC against Mycobacterium smegmatis strains (Test 4); settings: Mycolicibacterium smegmatis, read-out: Minimum Inhibitory Concentration
Protocol: Compounds were tested against four strains of Mycobacterium smegmatis. The test procedure used was as mentioned by N. E. Morrison [Int. J. of Leprosy 39:34-43 (1971)]. The strain numbers refer to Mycobacterium smegmatis ATCC 607, a DDS-resistant daughter strain, a Rifampin-resistant daughter strain, and a Clofazimine-resistant daughter strain, respectively.

Neisseria gonorrhoeae = assay: Agar dilution MIC, Neisseria gonorrhoeae isolates (Test 3); settings: 24 h
Protocol: Compounds were tested against six Neisseria gonorrhoeae isolates. The bacteria used were provided by the Department of Bacterial Diseases of the Walter Reed Army Institute of Research. The test procedure used was the agar dilution method in duplicate as outlined by J. C. Sherris on pages 411-412 (loc. cit.). GC Medium (Difco) with a 2% defined supplement added as described by D. S. Kellogg et al. [J. Bact. 85:1274-1279 (1963)] was used as the media. The compounds were dissolved in DMSO (1.0 mg/mL), diluted with GC broth (GC Medium without agar) to the appropriate concentration, and added to the GC Medium at 55°-56° C. The latter was then poured and allowed to solidify. A penicillin standard was also prepared with initial dilutions as described by J. C. Sherris followed by dilutions with GC broth and addition to the GC Medium at 55°-56° C. as above. The inoculum was 1:200 GC broth dilution of a suspension of colony isolates after the suspension was adjusted visually to the turbidity standard described by J. M. Matsen and A. L. Barr on page 422 in "Manual of Clinical Microbiology," 2nd ed., E. Lennette, E. H. Spaulding, and J. P. Truant, Ed. (American Society for Microbiology, Washington, D.C., 1974). The plates were inoculated with a replicator and incubated at 37° C. under 5-10% carbon dioxide.

[1] = Group D Enterococcus isolate II
[2] = Group D Enterococcus isolate III
[3] = Group D Enterococcus isolate IV
[4] = Neisseria meningitidis isolate 7957, read after 24 hours
[5] = Neisseria meningitidis isolate 7990, read after 24 hours
[6] = Neisseria meningitidis isolate 8005, read after 24 hours
[7] = Neisseria meningitidis isolate 8006, read after 24 hours
[8] = Neisseria meningitidis isolate 8011, read after 24 hours
[9] = ATCC607, Mycobacterium smegmatis strain I (ATCC 607)
[10] = Mycobacterium smegmatis strain II (DDS-resistant daughter strain)
[11] = Neisseria gonorrhoeae isolate 135, read after 24 hours, read-out: Minimum Inhibitory Concentration
[12] = Neisseria gonorrhoeae isolate 161, read after 24 hours, read-out: Minimum Inhibitory Concentration
[13] = Neisseria gonorrhoeae isolate 278, read after 24 hours, read-out: Minimum Inhibitory Concentration
[14] = Neisseria gonorrhoeae isolate 455, read after 24 hours, read-out: Minimum Inhibitory Concentration
[15] = Neisseria gonorrhoeae isolate 456, read after 24 hours, read-out: Minimum Inhibitory Concentration
[16] = Neisseria gonorrhoeae isolate 602, read after 24 hours, read-out: Minimum Inhibitory Concentration
[17] = Mycobacterium smegmatis strain IV (Clofazimine-resistant daughter strain)

MIC (Staphylococcus aureus; Staphylococcus aureus isolate I): 0.5 µg/mL (≈ 1.63 µM)
MIC (Staphylococcus aureus; Staphylococcus aureus isolate III): 1 µg/mL (≈ 3.26 µM)
MIC (Staphylococcus aureus; Staphylococcus aureus isolate IV): 0.5 µg/mL (≈ 1.63 µM)
MIC (Staphylococcus aureus; Staphylococcus aureus isolate V): 0.5 µg/mL (≈ 1.63 µM)
MIC (Group D Enterococcus; Group D Enterococcus isolate I): 2 µg/mL (≈ 6.53 µM)
MIC (Group D Enterococcus; [1]): 2 µg/mL (≈ 6.53 µM)
MIC (Group D Enterococcus; [2]): 2 µg/mL (≈ 6.53 µM)
MIC (Group D Enterococcus; [3]): 4 µg/mL (≈ 13.1 µM)
MIC (Group D Enterococcus; Group D Enterococcus isolate V): 2 µg/mL (≈ 6.53 µM)
MIC (Neisseria meningitidis; [4]): 0.062 µg/mL (≈ 0.202 µM)
MIC (Neisseria meningitidis; [5]): 0.125 µg/mL (≈ 0.408 µM)
MIC (Neisseria meningitidis; [6]): 0.5 µg/mL (≈ 1.63 µM)
MIC (Neisseria meningitidis; [7]): 0.062 µg/mL (≈ 0.202 µM)
MIC (Neisseria meningitidis; [8]): 0.5 µg/mL (≈ 1.63 µM)
Structure (SMILES): CC(=NNC(=S)N(CC(C)C)CC(C)C)c1ccccn1 [O, 2-Acetylpyridine 4,4-diisobutyl-3-thiosemicarbazone]

MIC (Group D Enterococcus; Group D Enterococcus isolate I): 8 µg/mL (≈ 26.1 µM)
MIC (Group D Enterococcus; [1]): 4 µg/mL (≈ 13.1 µM)
MIC (Group D Enterococcus; [2]): 4 µg/mL (≈ 13.1 µM)
MIC (Group D Enterococcus; [3]): 4 µg/mL (≈ 13.1 µM)
MIC (Group D Enterococcus; Group D Enterococcus isolate V): 4 µg/mL (≈ 13.1 µM)
Structure (SMILES): CC(=NNC(=S)NC(C)(C)CC(C)(C)C)c1ccccn1 [G, 2-Acetylpyridine 4-(1,1,3,3-tetramethylbutyl)-3-thiosemicarbazone]

MIC (Neisseria meningitidis; [4]): 0.008 µg/mL (≈ 0.0229 µM)
MIC (Neisseria meningitidis; [5]): 0.008 µg/mL (≈ 0.0229 µM)
MIC (Neisseria meningitidis; [6]): 0.008 µg/mL (≈ 0.0229 µM)
MIC (Neisseria meningitidis; [7]): 0.016 µg/mL (≈ 0.0458 µM)
MIC (Neisseria meningitidis; [8]): 0.016 µg/mL (≈ 0.0458 µM)
Structure (SMILES): CC1(C)S[C@@H]2[C@H](NC(=O)[C@H](N)c3ccccc3)C(=O)N2[C@H]1C(=O)O [Ampicillin, reference compound]

Structure (SMILES): Nc1ccc(S(=O)(=O)c2ccc(N)cc2)cc1 [DDS, reference compound]
MIC (Mycobacterium smegmatis; [9]): 2 µg/mL (≈ 8.05 µM)
MIC (Mycobacterium smegmatis; [10]): 400 µg/mL (≈ 1610 µM)

Structure (SMILES): CC(=NNC(=S)N(C)C)c1ccccn1 [R, 2-Acetylpyridine 4,4-dimethyl-3-thiosemicarbazone]
MIC (Neisseria meningitidis; [4]): 0.062 µg/mL (≈ 0.279 µM)
MIC (Neisseria meningitidis; [5]): 0.125 µg/mL (≈ 0.562 µM)
MIC (Neisseria meningitidis; [6]): 0.062 µg/mL (≈ 0.279 µM)
MIC (Neisseria meningitidis; [7]): 0.062 µg/mL (≈ 0.279 µM)
MIC (Neisseria meningitidis; [8]): 0.125 µg/mL (≈ 0.562 µM)
MIC (Neisseria gonorrhoeae; [11]): 0.004 µg/mL (≈ 0.018 µM)
MIC (Neisseria gonorrhoeae; [12]): 0.004 µg/mL (≈ 0.018 µM)
MIC (Neisseria gonorrhoeae; [13]): 0.008 µg/mL (≈ 0.036 µM)
MIC (Neisseria gonorrhoeae; [14]): 0.008 µg/mL (≈ 0.036 µM)
MIC (Neisseria gonorrhoeae; [15]): 0.008 µg/mL (≈ 0.036 µM)
MIC (Neisseria gonorrhoeae; [16]): 0.008 µg/mL (≈ 0.036 µM)
MIC (Mycobacterium smegmatis; [9]): 2 µg/mL (≈ 9 µM)
MIC (Mycobacterium smegmatis; [10]): 3 µg/mL (≈ 13.5 µM)
MIC (Mycobacterium smegmatis; Mycobacterium smegmatis strain III (Rifampin-resistant daughter strain)): 2 µg/mL (≈ 9 µM)
MIC (Mycobacterium smegmatis; [17]): 2 µg/mL (≈ 9 µM)

Structure (SMILES): CC1(C)S[C@@H]2[C@H](NC(=O)Cc3ccccc3)C(=O)N2[C@H]1C(=O)O [Penicillin, reference compound]
Minimum Inhibitory Concentration (Neisseria meningitidis; [5]): 0.031 µg/mL
Minimum Inhibitory Concentration (Neisseria meningitidis; [7]): 0.031 µg/mL
Minimum Inhibitory Concentration (Neisseria meningitidis; [8]): 0.031 µg/mL
MIC (Neisseria meningitidis): 0.031 µg/mL (≈ 0.0927 µM)
MIC (Neisseria gonorrhoeae; read-out: Minimum Inhibitory Concentration, Neisseria gonorrhoeae isolate 135, read after 24 hours): 0.25 µg/mL (≈ 0.748 µM)
MIC (Neisseria gonorrhoeae; read-out: Minimum Inhibitory Concentration, Neisseria gonorrhoeae isolate 161, read after 24 hours): 0.125 µg/mL (≈ 0.374 µM)
MIC (Neisseria gonorrhoeae; read-out: Minimum Inhibitory Concentration, Neisseria gonorrhoeae isolate 278, read after 24 hours): < 0.062 µg/mL
MIC (Neisseria gonorrhoeae; read-out: Minimum Inhibitory Concentration, Neisseria gonorrhoeae isolate 455, read after 24 hours): 0.125 µg/mL (≈ 0.374 µM)
MIC (Neisseria gonorrhoeae; read-out: Minimum Inhibitory Concentration, Neisseria gonorrhoeae isolate 456, read after 24 hours): > 16 µg/mL
MIC (Neisseria gonorrhoeae; read-out: Minimum Inhibitory Concentration, Neisseria gonorrhoeae isolate 602, read after 24 hours): > 16 µg/mL

MIC (Neisseria gonorrhoeae; [11]): 0.016 µg/mL (≈ 0.0677 µM)
MIC (Neisseria gonorrhoeae; [12]): 0.004 µg/mL (≈ 0.0169 µM)
MIC (Neisseria gonorrhoeae; [13]): 0.016 µg/mL (≈ 0.0677 µM)
MIC (Neisseria gonorrhoeae; [14]): 0.008 µg/mL (≈ 0.0338 µM)
MIC (Neisseria gonorrhoeae; [15]): 0.008 µg/mL (≈ 0.0338 µM)
MIC (Neisseria gonorrhoeae; [16]): 0.008 µg/mL (≈ 0.0338 µM)
Structure (SMILES): CCC(=NNC(=S)N(C)C)c1ccccn1 [JJ, 2-Propionylpyridine 4,4-dimethyl-3-thiosemicarbazone]

Structure (SMILES): CC(C)/N=c1\cc2n(-c3ccc(Cl)cc3)c3ccccc3nc-2cc1Nc1ccc(Cl)cc1 [Clofazimine, reference compound]
MIC (Mycobacterium smegmatis; [9]): 1.5 µg/mL (≈ 3.17 µM)
MIC (Mycobacterium smegmatis; [17]): 20 µg/mL (≈ 42.2 µM)
